Source: patent publication US20220265646A1, “PIEZO AGONISTS FOR PREVENTING OR REVERTING ABNORMAL AMYLOID DEPOSITION” (ITÄ-SUOMEN YLIOPISTO, priority 2019, published 2022)

Columns and labels:
Assay type in all cases: cell-based
native Piezo1Rs = biological target: T1, native Piezo1Rs (Homo sapiens, UniProt Q92508); assay: Calcium imaging of Yoda1-evoked Ca2+ influx in hiPSC-derived microglia; conditions: 50 μM Yoda1, control hiPSC microglia pre-incubated 15 min in BS, n=6
T1 construct: endogenous in cells; host or cells: human iPSC-derived microglia
T1 sequence (Q92508 whole entry): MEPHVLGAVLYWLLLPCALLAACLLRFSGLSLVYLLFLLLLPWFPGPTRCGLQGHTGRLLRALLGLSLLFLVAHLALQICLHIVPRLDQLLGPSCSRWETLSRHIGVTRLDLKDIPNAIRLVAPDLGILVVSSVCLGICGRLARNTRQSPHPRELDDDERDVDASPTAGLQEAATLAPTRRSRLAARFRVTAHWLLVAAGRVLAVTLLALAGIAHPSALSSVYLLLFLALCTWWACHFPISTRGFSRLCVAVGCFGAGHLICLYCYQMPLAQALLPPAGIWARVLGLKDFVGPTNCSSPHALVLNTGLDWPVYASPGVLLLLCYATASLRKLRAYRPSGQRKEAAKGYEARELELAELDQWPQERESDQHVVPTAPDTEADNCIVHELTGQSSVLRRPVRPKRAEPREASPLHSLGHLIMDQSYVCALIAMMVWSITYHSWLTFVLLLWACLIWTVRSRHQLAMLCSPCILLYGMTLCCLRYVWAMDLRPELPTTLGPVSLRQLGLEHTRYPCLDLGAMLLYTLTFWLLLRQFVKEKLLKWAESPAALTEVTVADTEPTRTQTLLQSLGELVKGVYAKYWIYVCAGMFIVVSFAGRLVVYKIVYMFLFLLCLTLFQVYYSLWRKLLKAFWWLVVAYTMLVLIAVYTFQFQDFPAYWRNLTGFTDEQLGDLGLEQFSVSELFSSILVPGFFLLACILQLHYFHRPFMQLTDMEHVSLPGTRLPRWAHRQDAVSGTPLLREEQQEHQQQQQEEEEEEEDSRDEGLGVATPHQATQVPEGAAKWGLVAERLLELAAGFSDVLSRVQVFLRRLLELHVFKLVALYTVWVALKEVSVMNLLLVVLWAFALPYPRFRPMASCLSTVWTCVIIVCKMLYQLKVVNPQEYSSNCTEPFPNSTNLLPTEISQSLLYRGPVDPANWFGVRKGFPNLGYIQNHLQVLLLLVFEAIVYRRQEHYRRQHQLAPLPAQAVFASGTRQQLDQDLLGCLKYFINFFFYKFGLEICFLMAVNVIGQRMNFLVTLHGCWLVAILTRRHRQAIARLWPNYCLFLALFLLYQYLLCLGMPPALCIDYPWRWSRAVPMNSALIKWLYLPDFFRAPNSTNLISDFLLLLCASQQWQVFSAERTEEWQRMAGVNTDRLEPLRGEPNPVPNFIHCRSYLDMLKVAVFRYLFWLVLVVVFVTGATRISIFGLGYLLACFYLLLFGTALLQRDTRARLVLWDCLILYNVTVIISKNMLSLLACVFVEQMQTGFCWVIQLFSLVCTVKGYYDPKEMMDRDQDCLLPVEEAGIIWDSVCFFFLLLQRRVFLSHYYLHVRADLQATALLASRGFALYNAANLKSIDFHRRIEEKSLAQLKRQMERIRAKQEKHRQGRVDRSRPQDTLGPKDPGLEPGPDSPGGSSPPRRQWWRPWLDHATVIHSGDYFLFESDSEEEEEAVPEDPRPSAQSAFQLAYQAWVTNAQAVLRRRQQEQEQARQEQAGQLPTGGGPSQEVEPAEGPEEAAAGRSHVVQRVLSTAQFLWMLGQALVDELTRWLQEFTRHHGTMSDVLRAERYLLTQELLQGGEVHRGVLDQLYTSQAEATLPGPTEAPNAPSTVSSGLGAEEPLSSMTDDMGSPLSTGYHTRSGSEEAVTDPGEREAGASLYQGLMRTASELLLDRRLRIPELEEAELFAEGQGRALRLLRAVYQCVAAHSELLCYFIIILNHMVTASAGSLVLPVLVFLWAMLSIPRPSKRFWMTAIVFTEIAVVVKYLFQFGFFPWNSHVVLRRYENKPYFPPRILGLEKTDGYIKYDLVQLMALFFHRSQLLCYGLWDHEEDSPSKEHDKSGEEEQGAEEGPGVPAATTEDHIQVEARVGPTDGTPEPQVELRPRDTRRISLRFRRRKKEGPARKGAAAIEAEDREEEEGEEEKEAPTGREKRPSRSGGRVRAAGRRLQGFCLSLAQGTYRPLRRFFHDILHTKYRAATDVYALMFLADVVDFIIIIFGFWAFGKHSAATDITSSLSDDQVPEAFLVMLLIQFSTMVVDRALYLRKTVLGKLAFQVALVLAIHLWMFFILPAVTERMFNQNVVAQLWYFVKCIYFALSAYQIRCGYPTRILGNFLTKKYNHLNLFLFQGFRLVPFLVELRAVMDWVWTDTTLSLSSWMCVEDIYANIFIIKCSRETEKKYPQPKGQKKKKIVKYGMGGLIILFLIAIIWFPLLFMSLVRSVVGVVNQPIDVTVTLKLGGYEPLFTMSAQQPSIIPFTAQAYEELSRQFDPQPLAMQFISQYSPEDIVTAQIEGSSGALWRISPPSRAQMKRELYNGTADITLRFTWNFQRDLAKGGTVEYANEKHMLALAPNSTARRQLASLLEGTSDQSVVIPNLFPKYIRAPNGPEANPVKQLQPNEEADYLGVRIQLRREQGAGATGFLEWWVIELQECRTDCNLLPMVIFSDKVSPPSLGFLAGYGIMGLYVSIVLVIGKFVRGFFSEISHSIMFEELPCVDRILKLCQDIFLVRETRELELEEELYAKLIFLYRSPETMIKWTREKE
Protocol: To study the calcium influx evoked by native Piezo1 Rs expressed in microglia cells the present inventors used short Yoda1 applications (2 s, 50 μM if not otherwise specified). For this purpose, human IPSO derived microglia cells and SV-40 (immortalized human microglia) cells were seeded on 7 mm cover slips 1 day prior to the imaging experiment. Cells were loaded with the calcium-sensitive fluorescent dye Fluo-4AM (5 μM) for 30 min at 37° C. Followed by wash-incubation for 15 min in Ab 20 μM, 50 μM GdCI and basic solution (BS) as a control at 37° C. The basic solution containing the following (BS, in mM): 2.5 KCl, 152 NaCl, 10 glucose, 2 CaCl2, and 10 HEPES at pH 7.4. Fluorescence was visualized using monochromatic light source (TILL Photonics GmbH) using Ex/Im 494/[…] and a CCD camera (SensiCam). Chemicals were applied using a fast perfusion system (RSC-200, BioLogic Science). To quantify the difference in the amplitude of calcium transients, the ratio values were normalized by subtracting a baseline and further divided by the amplitude of the calcium transient to the 2 sec application of the ionomycin. Data were pre-analyzed offline using the FEI offline analysis (TILL Photonics), and further analysis was automatized using MatLab. Quantitative data were expressed as means±SEM unless otherwise stated. Number of experiments is indicated by n. Significance assessed with the ANOVA test or Mann-Whitney t test for non-parametric data. Statistically significant differences were set at*p<0.05 and **p<0.01.
Differentiation of microglia. Differentiation of microglia was carried out as previously described with minor modifications (Abud et al., 2017). Shortly, on DO, iPSCs were dissociated to single cells with 0.5 mM EDTA or Accutase and were replated at a density of 6-,000-16,000 cells/cm2 on Matrigel in E8, 0.5% penicillin/streptomycin (P/S, 50 IU/50 […]), 5 ng/ml BMP4, 25 ng/ml activin a (both from Peprotech or Miltenyi Biotec), 1 μM CHIR 99021 (Axon or Stem Cell Technologies) and 10 μM Y-27632 to induce mesodermal differentiation. […]

hiPSC-microglia = assay: Cytotoxicity assay (Cytotox Green, Incucyte S3); conditions: 2-20 μM Yoda1, 60-hour time point, n=3 experiments
Protocol: Cytotoxicity assay. The cytotoxicity of in vitro cultures was assessed with Cytotox Green assay (Essen Bioscience) using Incucyte S3 Live-Cell Analysis System (Essen Bioscience, Ann Arbor, Mich., USA, #4647). Microglia were seeded for the assay at density of 15 000 cells per well on poly-D-lysine (PDL, Sigma, #P0899) coated Nunclon (Thermo Scientific, #167008) or ImageLock 96-well plates (Essen Bioscience, #4379). On the assay day, cells were treated with 0.1-20 μM Yoda1 (Tocris, #5586) in PM medium supplemented with 250 nM Cytotox Green reagent (Essen Bioscience, #4633). Equal volume of DMSO (Sigma, #D2650) was used as a vehicle and 200 μM MPP+(Sigma, #D048) was applied as a positive control. Cells were live-imaged in IncuCyte S3 at 37° C. and 5% CO2 every 3 hours for 3 days to obtain cell death over time. One to two 10× images per well were captured using the phase-contrast mode to obtain confluency and the green fluorescence mode to obtain fluorescent intensity. Quantification was performed using IncuCyte S3 Software (2019B). Green fluorescence was separated from background with a top-hat thresholding and all settings were kept constant between different conditions. […]

N2a cells = assay: Apoptosis assay in N2a cells under hypoxia; conditions: 5 μM Yoda1 three days, 1% hypoxia 24 h
Protocol: Apoptosis assay in N2a cells. N2a cells were treated with 5 μM Yoda1 or vehicle for three consecutive days and exposed to 1% hypoxia as described above for 24 h before collecting the cells for apoptosis assay. The apoptotic cells were labeled with APC Annexin Ready Flow -dye (1:12.5 dilution, Invitrogen, Carlsbad, Calif., USA) in Annexin V Binding Buffer (10 mM HEPES, 150 mM NaCl, 2.5 mM CaCl2 in PBS, pH 7.4). 4′,6-Diamidino-2-Phenylindole, Dilactate (DAPI; Invitrogen, Carlsbad, Calif., USA) staining was added at 1:3300 dilution to label late apoptotic and necrotic cells. The samples were run with CytoFLEX S instrument (Beckman Coulter Life Sciences, Indianapolis, Ind., USA), and the results were analysed with CytExpert software (version 2.3.0.84, Beckman Coulter Life Sciences, Indianapolis, Ind., USA). The results of hypoxic samples were normalized to corresponding normoxic samples.

Structure (SMILES): Clc1cccc(Cl)c1CSc1nnc(-c2cnccn2)s1 [Yoda1]
- Ca2+ transients evoked by Yoda1 short (2 s) application, amplitude normalized to ionomycin (native Piezo1Rs): 1.15±0.36
- microglial cell death (cytotoxicity dye uptake) (hiPSC-microglia): protects hiPSC-microglia from cell death
- hypoxia-induced early apoptosis (N2a cells): almost completely block
- hypoxia-induced late apoptosis (N2a cells): almost completely block
